According to patent US6203822A, “Gallium-containing compounds for the treatment of infections caused by intracellular pathogens and pathogens causing chronic pulmonary infection” (priority 1996, dated 2001):

Columns and labels:
Type in all cases: cell-based
[1] = tested on: M. tuberculosis strain H37Ra
[2] = tested on: M. tuberculosis in human alveolar macrophages; assay: M. tuberculosis in human alveolar macrophages, gallium nitrate with or without anti-tuberculous antibiotics
Experimental: The gallium-containing compounds can also be tested for their ability to inhibit intracellular pathogens in tissue culture assays. In general, in these assays, the macrophages are placed in culture and incubated with the intracellular pathogen at an approximate cell to pathogen ratio of preferably at least 1:1 to about 1:5 cells:pathogen. Exemplary culture conditions are provided in the assays detailed in the Examples. For assays assessing M. tuberculosis infection, freshly adherent monocytes, 12 day-old adherent MDMs, or freshly adherent alveolar macrophages are incubated with M. tuberculosis, MAI or other intracellular bacteria at a ratio of about 1:1 to about 1:5 (phagocyte:bacterium). For M. tuberculosis or MAI, the bacteria are incubated with the phagocyte for 2 hr at 37° C. in RPMI/HEPES media with 2.5% serum or human serum albumin (serum-free). The cells are washed to remove non-adherent bacteria and monolayers are replated with RPMI containing 1% autologous serum (to maintain phagocyte viability but not to sustain extracellular growth of bacteria). Gallium-containing compounds, such as gallium nitrate, with, or without, other agents such as antibiotics, cytokines etc., are added about 24 hr. later and mycobacterial growth in cell lysates is then assessed over the next several days either by the radiometric BACTEC system or by colony-forming units on agarose plates. In each experiment, growth is assessed relative to control monolayers where no drug has been added.
Human alveolar macrophages were purified from healthy non-smoking adult volunteers and placed in monolayer culture. M. tuberculosis infected cells were treated with gallium nitrate as described in Example 2. Antituberculous antibiotics were added to wells alone or with gallium nitrate at 500 μM 24 h after M. tuberculosis infection. Antituberculous antibiotics tested included streptomycin (2.016 μg/ml), isoniazid (0.1 μg/ml), rifampin (2.0 μg/ml), and ethambutol (2.52 μg/ml) and the combination of antibiotics was denoted as SIRE. Antibiotics were obtained in lyophilized form from BACTEC. The antibiotics were reconstituted in sterile water per package instructions. With reference to FIG. 3, SIRE refers to combinations of streptomycin, isoniazid, rifampin and ethambutol while IR refers to combinations of Isoniazid and rifampin.
Infected macrophages were cultured for 24 h, 48 h, or 120 h. Growth index readings of combined supernatants and cell lysates were measured in the BACTEC 460 TB system. […] Since these antibiotics have a number of unpleasant side effects that are reduced at reduced concentrations of the drugs, combined therapies that permit these antibiotics to be administered at lower doses when combined with gallium nitrate is significant and may help to promote better drug compliance in patients infected with M. tuberculosis.

[3] = tested on: P. aeruginosa strain PA01; assay: Growth inhibition of P. aeruginosa in iron-supplemented succinate medium; conditions: for A600 (growth): 1 μM ferric chloride, 7 h, control A600=0.297
Experimental: In another embodiment of this invention, P. aeruginosa, the principle cause of chronic lung infections in patients with cystic fibrosis, was also determined to be susceptible to gallium-containing compounds. The PA01 strain of P. aeruginosa only grew in an iron-restricted succinate based broth medium (Cox, CD. Infect. Immun. 52:263-270, 1986) that included exogenous Ferric chloride or iron chelated to either of the siderophores pyochelin or pyoverdin at concentrations of 1 μM or greater. The addition of gallium nitrate to the iron supplemented medium inhibited P. aeruginosa growth (see Example 15). Growth was measure by monitoring the culture medium absorbance at 600 nm.
P. aeruginosa strain PA01 was suspended in succinate-based medium (Cox, C. D., Infect. Immun. 52:262-270, 1986) to an optical density of approximately 0.040 at 600 nm in the absence (negative control) or presence of 1 μM ferric chloride (positive growth control). To some aliquots of both positive and negative control conditions, gallium nitrate was added at varying concentrations. The bacterial suspensions were placed at 37° C. for 7 h and growth was determined by measuring absorbance at 600 nm. […] With the inclusion of ferric chloride the concentration of organisms increased nearly eight fold A600=0.297).

Q: Which results are given for O=[N+]([O-])[O-].O=[N+]([O-])[O-].O=[N+]([O-])[O-].[Ga+3] [gallium nitrate]?
A: concentration with marked inhibition of growth (comparison with gallium transferrin) [1]: 100 µM; augmentation of growth inhibition by antibiotics ([2]; gallium nitrate 500 μM plus suboptimal antibiotics (1/10 the standard concentrations), human alveolar macrophages): augments the ability of suboptimal concentrations of antibiotics; enhancement of antibiotic growth inhibition ([2]; suboptimal streptomycin, isoniazid, rifampin and ethambutol or suboptimal Isoniazid and rifampin): clear-cut enhancement in inhibition of M. tuberculosis growth; growth inhibition in words ([3]; 1 μM gallium nitrate): Slight inhibition; A600 (growth) ([3]; 1 μM gallium nitrate): 0.270; decrease of growth ([3]; 10 μM gallium nitrate): more than 50%; A600 (growth) ([3]; 10 μM gallium nitrate): 0.130; P. aeruginosa growth inhibition ([3]; 100 μM and 10 μM gallium nitrate, ferric chloride supplemented): Significant inhibition; growth inhibition in words ([3]; 100 μM gallium nitrate): completely inhibited; A600 (growth) ([3]; 100 μM gallium nitrate): 0.043
